Reference: patent US20150125457A1, “BONE REPAIR PROMOTER” (DAIICHI SANKYO COMPANY, LIMITED, priority 2012, published 2015)
Where “and” joins values, the source holds several entries; their conditions need not be identical. Equal entries are not always repeated.

Experiments:
Format in all cases: in vivo
[1] = system: rat femur fracture model; assay: Rat femur fracture model (surgically cut femoral diaphysis), three-point bending bone strength test; details: for Break deformation / Break energy / Break strength / Maximum load / Stiffness (Δ70%-20%) / Break deformation, left/right ratio / Break energy, left/right ratio / Break strength, left/right ratio / Maximum load, left/right ratio / Stiffness (Δ70%-20%), left/right ratio: mean ± SD, N=10; for Break deformation, left/right ratio / Break energy, left/right ratio / Break strength, left/right ratio / Maximum load, left/right ratio / Stiffness (Δ70%-20%), left/right ratio: ratio of left/right femurs
Method: A fracture model was surgically prepared at the left femoral diaphysis of a 6-week-old female SD strain (Crl: CD) IGS rat. A barbital-based anesthetic agent (Somnopentyl®, Kyoritsu Seiyaku Corporation) was intraperitoneally administered to an animal in order to anesthetize the animal. Isoflurane (Escain, Mylan Inc.) inhalation anesthesia was performed as an adjunct to anesthesia. The skin on the upside of the knee joint was incised, exfoliation was performed between the rectus femoris muscle and the vastus lateralis muscle to expose the femur. At around 0.5 mm distal from the center of the femoral diaphysis, the diaphysis was completely cut in cross-section by a bone cutter (Osada Equipment Co., Ltd.). After that, an injection needle 21G was inserted into the bone marrow between the greater trochanter and the femur neck of the left femur, and the muscle and the skin were sutured with 2 to 3 stitches. For the prevention of post-operative suppuration, potassium penicillin G for injection (Meiji Seika Kaisha, Limited) was administered as an antibiotic, and the suture site of the skin was disinfected with povidone-iodine (Isodine®, Meiji Seika Kaisha, Limited). As the test substance, CNP derivative A (SEQ ID NO: 13: the SEQ ID NO: 157 of the publication of US patent application US 2010-305031, produced by a method described in the publication) was used for repeated subcutaneous administration at 10 or 100 nmol/kg once per day for 8 weeks. Vehicle was administered to the control group. On the next day after the administration end date, the left and right femurs and the left and right tibiae were resected. For the resected bone, the bone length, and the callus size in the fracture site were measured, the left and right femurs were subjected to soft X-ray radiography, and then the healing state in the fracture site was determined. After that, a three-point bending strength test was performed by using a bone strength measuring device MZ-500S (MARUTO INSTRUMENT CO., LTD.), and a bone strength testing system CTR win Ver. 1.21 (System Supply Co., Ltd.). The bone after finishing the measurements was fixed with 10% neutral buffered formalin, and the pathologic sample was prepared and observed. The administration was performed to a group of 14 rats including spare rats. At 2, 4, and 6 weeks after the administration, one from each of the cases was sampled for follow-up, further the one in the control group, which had shown nonunion-like symptoms, was excluded from the evaluation, and eventually the results were evaluated as a group of 10 rats.

[2] = system: rat closed femur fracture model; assay: Rat closed femur fracture model, callus diameter; details: 0.5 mg/kg/day continuous s.c. for one week; 7 days after fracture; versus vehicle group; FIG. 5B
Method: (§1) In accordance with the method of Example 2, a rat closed fracture model was prepared. An administration solution was prepared so as to be a dosage corresponding to 0.5 mg/kg/day by using various NPR-B agonists (CNP derivative A, hCNP-53 (SEQ ID NO: 2), CNP derivative C (CNP-36, amino acid Nos. 18 to 53 of SEQ ID NO: 2), and CNP derivative D (Pro-Gly-CNP37, SEQ ID NO: 15)), and then loaded into an osmotic pump (Model 2001, Alzet). The osmotic pump was buried under the skin of the neck back of the animal retained in a supine position, and continuous subcutaneous administration was performed for one week. Vehicle was administered to the control group. 7 days after the preparation of the bone fracture, the animal was subjected to isoflurane inhalation anesthesia, retained in a supine position to open the abdomen, and then subjected to blood collection from the abdominal aorta. EDTA Na was added to the blood, then the EDTA Na-added blood was centrifuged and the plasma separated, and the resultant was cryopreserved. At a later date, the cGMP level in the plasma was measured by a RIA method using a kit (YSI-7702, YAMASA CORPORATION). After blood collection, the animal was bled for the euthanasia, and then the left femur was resected. Each maximum diameter of the sagittal plane and the coronal plane in the callus was measured, and the average value was used as a callus diameter. In accordance with the method of Example 3, the type X collagen gene expression level in the callus was measured. The measurement was performed for 12 cases in each group.

[3] = system: type X collagen gene; assay: Rat closed femur fracture model, cartilage-related marker gene expression (real-time PCR); details: 7 days after fracture
Method: In accordance with the method of Example 2, a rat closed fracture model was prepared. For an animal in a Sham group, a pin only was inserted into the femur, and a bone fracture was not prepared. An administration solution of CNP derivative A was prepared so as to be a dosage corresponding to 0.5 mg/kg/day, and then loaded into an osmotic pump (model 2001, Alzet). The osmotic pump was buried under the skin of the neck back of the animal, and continuous subcutaneous administration was performed for one week. Vehicle was continuously subcutaneously administered to the control group. 7 days after the preparation of the bone fracture, the animal was subjected to isoflurane inhalation anesthesia, retained in a supine position to open the abdomen, and then bled for the euthanasia. The left femur was resected, and immersed into RNAlater (Life Technologies Corporation). The diaphysis or part of the callus was cut out from the femur that had been refrigerated in RNAlater for one day or more. To the cut-out diaphysis or part of the callus, QIAzol (QIAGEN) was added, and the resultant was crushed with tungsten beads. The total RNA was extracted by an RNeasy Mini Kit (QIAGEN), and 1st strand cDNA was synthesized by a SuperScript VILO cDNA Synthesis Kit (Life Technologies Corporation). The gene expression level was measured by a real-time PCR method using TaqMan Gene Expression Master Mix (Life Technologies Corporation). The measured value was standardized by the gene expression level of ubiquitin-C. The standardization was performed for 12 cases in each group.
as §1

[4] = 10 nmol/kg s.c. once per day for 8 weeks, fractured left femur
[5] = 10 nmol/kg s.c. once per day for 8 weeks
[6] = 10 nmol/kg s.c. once per day for 8 weeks, untreated right femur
[7] = 100 nmol/kg s.c. once per day for 8 weeks, fractured left femur
[8] = 100 nmol/kg s.c. once per day for 8 weeks
[9] = 100 nmol/kg s.c. once per day for 8 weeks, untreated right femur

CNP derivative A: CNP (1-22) Ghrelin (12-28, E17D): SEQ ID NO: 13; SEQ ID NO: 157 of US 2010-305031 (GLSKGCFGLKLDRIGSMSGLGCVQQRKDSKKPPAKLQPR; Chimeric CNP J (SEQ ID NO157) of US2010-305031 and WO2009/142307, and CNP derivative A of current invention.)
Break deformation [1, 4]: 1.15 ± 0.58 mm
Break energy [1, 4]: 45.91 ± 26.15 N.mm
Break strength [1, 4]: 72.05 ± 30.40 N
Maximum load [1, 4]: 81.98 ± 34.64 N
Stiffness (Δ70%-20%) [1, 4]: 138.36 ± 89.14 N/mm
Break deformation, left/right ratio [1, 5]: 1.15 ± 0.57
Break energy, left/right ratio [1, 5]: 0.75 ± 0.33
Break strength, left/right ratio [1, 5]: 0.80 ± 0.33
Maximum load, left/right ratio [1, 5]: 0.86 and 0.86 ± 0.35
Stiffness (Δ70%-20%), left/right ratio [1, 5]: 0.75 ± 0.48
Break deformation [1, 6]: 0.99 ± 0.15 mm
Break energy [1, 6]: 59.55 ± 12.33 N.mm
Break strength [1, 6]: 89.22 ± 6.58 N
Maximum load [1, 6]: 95.08 ± 5.29 N
Stiffness (Δ70%-20%) [1, 6]: 187.11 ± 32.64 N/mm
Break deformation [1, 7]: 1.04 ± 0.45 mm
Break energy [1, 7]: 53.90 ± 24.24 N.mm
Break strength [1, 7]: 80.02 ± 15.97 N
Maximum load [1, 7]: 87.59 ± 19.00 N
Stiffness (Δ70%-20%) [1, 7]: 162.09 ± 105.67 N/mm
Break deformation, left/right ratio [1, 8]: 1.02 ± 0.38
Break energy, left/right ratio [1, 8]: 0.90 and 0.90 ± 0.36
Break strength, left/right ratio [1, 8]: 1.06 ± 0.33
Maximum load, left/right ratio [1, 8]: 1.03 and 1.03 ± 0.28
Stiffness (Δ70%-20%), left/right ratio [1, 8]: 0.85 ± 0.64
Break deformation [1, 9]: 1.01 ± 0.17 mm
Break energy [1, 9]: 60.82 ± 13.73 N.mm
Break strength [1, 9]: 77.75 ± 10.46 N
Maximum load [1, 9]: 86.89 ± 10.96 N
Stiffness (Δ70%-20%) [1, 9]: 200.64 ± 43.22 N/mm
Break energy in a fracture site of the left femur, dose dependence ([1]; 10 and 100 nmol/kg s.c. once per day for 8 weeks, versus vehicle): increased CNP derivative A-dose dependently
Maximum diameter of the callus generated in the left femur [2]: significantly larger
Gene expression of type X collagen in fractured left femur ([3]; Example 3: 0.5 mg/kg/day continuous s.c. (osmotic pump) for one week, normalized to ubiquitin C): significantly suppressed
Gene expression level of type X collagen in the callus ([3]; Example 4: 0.5 mg/kg/day continuous s.c. for one week, versus vehicle group, FIG. 5C): suppressed
